Laboratory results reported in PMC5218480 (PLoS ONE, 2017).

System: MV-4-11 cells
Assay: Gene expression microarray analysis (Affymetrix PrimeView) and GSEA
Type: cell-based, human
Set-up: RFU PODN (11730768_x_at) / Fold change /veh PODN (11730768_x_at) / RFU LINC00158 (11744669_a_at) / Fold change /veh LINC00158 (11744669_a_at) / RFU DUSP10 (11751237_a_at) / Fold change /veh DUSP10 (11751237_a_at) / RFU ID3 (11757404_x_at) / Fold change /veh ID3 (11757404_x_at) / RFU PLEKHG5 (11737974_s_at) / Fold change /veh PLEKHG5 (11737974_s_at) / RFU LRRC4B (11730491_at) / Fold change /veh LRRC4B (11730491_at) / RFU GIMAP4 (11747438_a_at) / Fold change /veh GIMAP4 (11747438_a_at) / RFU KRT8 (11758183_x_at) / Fold change /veh KRT8 (11758183_x_at) / RFU CNN1 (11734310_a_at) / Fold change /veh CNN1 (11734310_a_at) / RFU VPS37D (11726825_at) / Fold change /veh VPS37D (11726825_at) / RFU C10orf10 (11716522_x_at) / Fold change /veh C10orf10 (11716522_x_at) / RFU KIR2DL2 /// KIR2DL4 /// KIR2DL5A /// KIR2DL5B /// KIR2DS1 /// KIR2DS2 /// KIR2DS3 /// KIR2DS4 /// KIR3DL3 /// KIR3DL3 /// KIR3DS1 (11738374_at) / Fold change /veh KIR2DL2 /// KIR2DL4 /// KIR2DL5A /// KIR2DL5B /// KIR2DS1 /// KIR2DS2 /// KIR2DS3 /// KIR2DS4 /// KIR3DL3 /// KIR3DL3 /// KIR3DS1 (11738374_at) / RFU C1QL1 (11718748_at) / Fold change /veh C1QL1 (11718748_at) / RFU TMPRSS4 (11747572_a_at) / Fold change /veh TMPRSS4 (11747572_a_at) / RFU HAMP (11756126_x_at) / Fold change /veh HAMP (11756126_x_at) / RFU RNFT2 (11725882_a_at) / Fold change /veh RNFT2 (11725882_a_at) / RFU NR4A2 (11747474_a_at) / Fold change /veh NR4A2 (11747474_a_at) / RFU ABCC12 (11746883_a_at) / Fold change /veh ABCC12 (11746883_a_at) / RFU TMEM136 (11760407_x_at) / Fold change /veh TMEM136 (11760407_x_at) / RFU CLDN22 /// WWC2 (11732394_at) / Fold change /veh CLDN22 /// WWC2 (11732394_at) / RFU HLA-DPB1 (11760878_x_at) / Fold change /veh HLA-DPB1 (11760878_x_at) / RFU SPINT1 (11716480_a_at) / Fold change /veh SPINT1 (11716480_a_at) / RFU GAP43 (11754022_s_at) / Fold change /veh GAP43 (11754022_s_at) / RFU A4GNT (11735810_at) / Fold change /veh A4GNT (11735810_at) / RFU PRB3 (11715151_x_at) / Fold change /veh PRB3 (11715151_x_at) / RFU TUBB4B (11761932_at) / Fold change /veh TUBB4B (11761932_at) / RFU CAPN14 (11732068_a_at) / Fold change /veh CAPN14 (11732068_a_at) / RFU TMCC2 (11721928_a_at) / Fold change /veh TMCC2 (11721928_a_at) / RFU IRGQ (11745062_a_at) / Fold change /veh IRGQ (11745062_a_at) / RFU FAM174B (11720279_a_at) / Fold change /veh FAM174B (11720279_a_at) / RFU TMPRSS4 (11748680_a_at) / Fold change /veh TMPRSS4 (11748680_a_at) / RFU FAM212B (11763350_a_at) / Fold change /veh FAM212B (11763350_a_at) / RFU PLEKHG5 (11743358_a_at) / Fold change /veh PLEKHG5 (11743358_a_at) / RFU ZSCAN30 (11745921_a_at) / Fold change /veh ZSCAN30 (11745921_a_at) / RFU CMKLR1 (11741424_a_at) / Fold change /veh CMKLR1 (11741424_a_at) / RFU LOC101060620 /// MAPK8IP1 (11723275_at) / Fold change /veh LOC101060620 /// MAPK8IP1 (11723275_at) / RFU SPTSSB (11747773_x_at) / Fold change /veh SPTSSB (11747773_x_at) / RFU PRSS12 (11739890_at) / Fold change /veh PRSS12 (11739890_at) / RFU BIN1 (11741810_x_at) / Fold change /veh BIN1 (11741810_x_at) / RFU WNT11 (11732464_a_at) / Fold change /veh WNT11 (11732464_a_at) / RFU C10orf10 (11716521_a_at) / Fold change /veh C10orf10 (11716521_a_at) / RFU C5orf56 (11738089_at) / Fold change /veh C5orf56 (11738089_at) / RFU CYB561 (11721691_x_at) / Fold change /veh CYB561 (11721691_x_at) / RFU ANKRD19P (11752326_a_at) / Fold change /veh ANKRD19P (11752326_a_at) / RFU OR2T12 /// OR2T33 /// OR2T8 (11738714_s_at) / Fold change /veh OR2T12 /// OR2T33 /// OR2T8 (11738714_s_at) / RFU VCAN (11748164_a_at) / Fold change /veh VCAN (11748164_a_at) / RFU JSRP1 (11732532_at) / Fold change /veh JSRP1 (11732532_at) / RFU KRTAP10-11 (11738290_x_at) / Fold change /veh KRTAP10-11 (11738290_x_at) / RFU MYO3A (11730013_a_at) / Fold change /veh MYO3A (11730013_a_at) / RFU EBF3 (11725865_a_at) / Fold change /veh EBF3 (11725865_a_at) / RFU CAMK2N1 (11719241_x_at) / Fold change /veh CAMK2N1 (11719241_x_at) / RFU C5orf56 (11738088_a_at) / Fold change /veh C5orf56 (11738088_a_at) / RFU OLFML3 (11715873_a_at) / Fold change /veh OLFML3 (11715873_a_at) / RFU LOC100653217 /// NTM (11731650_a_at) / Fold change /veh LOC100653217 /// NTM (11731650_a_at) / RFU MAPK11 (11762145_a_at) / Fold change /veh MAPK11 (11762145_a_at) / RFU FIZ1 (11724087_x_at) / Fold change /veh FIZ1 (11724087_x_at) / RFU OASL (11726364_x_at) / Fold change /veh OASL (11726364_x_at) / RFU SOX15 (11748057_x_at) / Fold change /veh SOX15 (11748057_x_at) / RFU CD79A (11719716_a_at) / Fold change /veh CD79A (11719716_a_at) / RFU HIST1H1D (11736915_at) / Fold change /veh HIST1H1D (11736915_at) / RFU CASKIN2 (11723855_a_at) / Fold change /veh CASKIN2 (11723855_a_at) / RFU LOC730098 (11760151_x_at) / Fold change /veh LOC730098 (11760151_x_at) / RFU OR4N2 (11742367_at) / Fold change /veh OR4N2 (11742367_at) / RFU PRRT2 (11749266_a_at) / Fold change /veh PRRT2 (11749266_a_at) / RFU SNX32 (11753110_a_at) / Fold change /veh SNX32 (11753110_a_at) / RFU CDHR5 (11726645_a_at) / Fold change /veh CDHR5 (11726645_a_at) / RFU RCAN1 (11760418_a_at) / Fold change /veh RCAN1 (11760418_a_at) / RFU FAM167A (11723789_a_at) / Fold change /veh FAM167A (11723789_a_at) / RFU FAM26E (11764081_at) / Fold change /veh FAM26E (11764081_at) / RFU ISYNA1 (11749810_s_at) / Fold change /veh ISYNA1 (11749810_s_at) / RFU ACY1 (11761880_at) / Fold change /veh ACY1 (11761880_at) / RFU 11764098_at / Fold change /veh 11764098_at / RFU SAMD14 (11745864_x_at) / Fold change /veh SAMD14 (11745864_x_at) / RFU NPB (11741838_a_at) / Fold change /veh NPB (11741838_a_at) / RFU TMPRSS6 (11731388_a_at) / Fold change /veh TMPRSS6 (11731388_a_at) / RFU KRTAP10-2 (11738614_at) / Fold change /veh KRTAP10-2 (11738614_at) / RFU ARHGAP8 /// PRR5-ARHGAP8 (11727945_x_at) / Fold change /veh ARHGAP8 /// PRR5-ARHGAP8 (11727945_x_at) / RFU KRTAP5-7 /// NADSYN1 (11734609_at) / Fold change /veh KRTAP5-7 /// NADSYN1 (11734609_at) / RFU RASL12 (11751679_a_at) / Fold change /veh RASL12 (11751679_a_at) / RFU CDKN2B (11736163_a_at) / Fold change /veh CDKN2B (11736163_a_at) / RFU PRF1 (11729649_at) / Fold change /veh PRF1 (11729649_at) / RFU, ZNF638 /// ZNF638-IT1 / Fold change vs veh, ZNF638 /// ZNF638-IT1 / RFU, PANK3 / Fold change vs veh, PANK3 / RFU, SH3YL1 / Fold change vs veh, SH3YL1 / RFU, ZEB2 / Fold change vs veh, ZEB2 / RFU, NRIP1 / Fold change vs veh, NRIP1 / RFU, PTTG1IP / Fold change vs veh, PTTG1IP / RFU, CAPN2 / Fold change vs veh, CAPN2 / RFU, MED14 / Fold change vs veh, MED14 / RFU, SNORA58 / Fold change vs veh, SNORA58 / RFU, C1orf63 / Fold change vs veh, C1orf63 / RFU, LRRFIP1 / Fold change vs veh, LRRFIP1 / RFU, NDUFAF7 / Fold change vs veh, NDUFAF7 / RFU, SLC12A2 / Fold change vs veh, SLC12A2 / RFU, IBTK / Fold change vs veh, IBTK / RFU, ESF1 / Fold change vs veh, ESF1 / Fold change vs veh, TMEM50B / RFU, TAOK1 / Fold change vs veh, TAOK1 / RFU, ACBD3 / Fold change vs veh, ACBD3 / RFU, TMA16 / Fold change vs veh, TMA16 / RFU, RWDD3 / Fold change vs veh, RWDD3 / RFU, BCAT1 / Fold change vs veh, BCAT1 / RFU, EDEM3 / Fold change vs veh, EDEM3 / RFU, TMEM33 / Fold change vs veh, TMEM33 / RFU, WDR75 / Fold change vs veh, WDR75 / RFU, AHCTF1 / Fold change vs veh, AHCTF1 / RFU, TFRC / Fold change vs veh, TFRC / RFU, ZDHHC17 / Fold change vs veh, ZDHHC17 / RFU, NOM1 / Fold change vs veh, NOM1 / RFU, ARL8B / Fold change vs veh, ARL8B / RFU, ZBTB11 / Fold change vs veh, ZBTB11 / RFU, TAMM41 / Fold change vs veh, TAMM41 / RFU, KIAA1704 /// LOC100996395 / Fold change vs veh, KIAA1704 /// LOC100996395 / RFU, ING1 / Fold change vs veh, ING1 / RFU, TRMT61B / Fold change vs veh, TRMT61B / RFU, FUBP3 / Fold change vs veh, FUBP3 / RFU, TP53 / Fold change vs veh, TP53 / RFU, TNKS2 / Fold change vs veh, TNKS2 / RFU, ZFP14 / Fold change vs veh, ZFP14 / RFU, ACTR2 / Fold change vs veh, ACTR2 / RFU, PPP3R1 / Fold change vs veh, PPP3R1 / RFU, PIK3R1 / Fold change vs veh, PIK3R1 / RFU, HNRNPA1 / Fold change vs veh, HNRNPA1 / RFU, RNF170 / Fold change vs veh, RNF170 / RFU, ZNF28 / Fold change vs veh, ZNF28 / RFU, RNGTT / Fold change vs veh, RNGTT / RFU, OGT / Fold change vs veh, OGT / RFU, BRD1 / Fold change vs veh, BRD1 / RFU, MARS / Fold change vs veh, MARS / RFU, ZNF655 / Fold change vs veh, ZNF655 / RFU, FAHD1 / Fold change vs veh, FAHD1 / RFU, BDP1 / Fold change vs veh, BDP1 / RFU, LRRCC1 / Fold change vs veh, LRRCC1 / RFU, ARID1A / Fold change vs veh, ARID1A / RFU, ZNF146 / Fold change vs veh, ZNF146 / RFU, ZNF330 / Fold change vs veh, ZNF330 / RFU, GPN3 / Fold change vs veh, GPN3 / RFU, C9orf123 / Fold change vs veh, C9orf123 / RFU, N4BP2L2 / Fold change vs veh, N4BP2L2 / RFU, ARFIP1 / Fold change vs veh, ARFIP1 / RFU, FAM179B / Fold change vs veh, FAM179B / RFU, BCL10 / Fold change vs veh, BCL10 / RFU, UHRF1BP1L / Fold change vs veh, UHRF1BP1L / RFU, BET1 / Fold change vs veh, BET1 / RFU, CNOT2 / Fold change vs veh, CNOT2 / RFU, ZNF268 / Fold change vs veh, ZNF268 / Fold change vs veh, ZNF507 / RFU, DGCR2 / Fold change vs veh, DGCR2 / RFU, WDSUB1 / Fold change vs veh, WDSUB1 / Fold change vs veh, HSP90B1 /// MIR3652 / RFU, ADSS / Fold change vs veh, ADSS / RFU, GK / Fold change vs veh, GK / RFU, ZNF148 / Fold change vs veh, ZNF148 / RFU, TAF9 / Fold change vs veh, TAF9 / RFU, SLC1A5 / Fold change vs veh, SLC1A5 / RFU, SLMO2 / Fold change vs veh, SLMO2 / RFU, ABCC4 / Fold change vs veh, ABCC4 / RFU, LOC101060439 /// RAP1B / Fold change vs veh, LOC101060439 /// RAP1B / RFU, RFX7 / Fold change vs veh, RFX7 / RFU, GTPBP10 / Fold change vs veh, GTPBP10 / RFU, CNEP1R1 / Fold change vs veh, CNEP1R1 / RFU, BIVM-ERCC5 /// ERCC5 / Fold change vs veh, BIVM-ERCC5 /// ERCC5 / RFU, ILF3 / Fold change vs veh, ILF3 / RFU 11762660_at / Fold change /veh 11762660_at / RFU VCAN (11757783_s_at) / Fold change /veh VCAN (11757783_s_at) / RFU DDX43 (11728927_at) / Fold change /veh DDX43 (11728927_at) / RFU KRT8 (11758188_x_at) / Fold change /veh KRT8 (11758188_x_at) / RFU NKD1 (11759106_at) / Fold change /veh NKD1 (11759106_at) / RFU SRD5A1 (11742802_a_at) / Fold change /veh SRD5A1 (11742802_a_at) / RFU TPSAB1 /// TPSB2 (11721975_s_at) / Fold change /veh TPSAB1 /// TPSB2 (11721975_s_at) / RFU GSTM3 (11746129_a_at) / Fold change /veh GSTM3 (11746129_a_at) / RFU IL23R (11737362_x_at) / Fold change /veh IL23R (11737362_x_at) / RFU TMEM51 (11727254_a_at) / Fold change /veh TMEM51 (11727254_a_at) / RFU PIWIL2 (11732686_x_at) / Fold change /veh PIWIL2 (11732686_x_at) / RFU ORM1 (11744905_x_at) / Fold change /veh ORM1 (11744905_x_at) / RFU CCDC152 (11743942_at) / Fold change /veh CCDC152 (11743942_at) / RFU ECM1 (11717891_a_at) / Fold change /veh ECM1 (11717891_a_at) / RFU IL23R (11748794_a_at) / Fold change /veh IL23R (11748794_a_at) / RFU TNFAIP8L3 (11732012_x_at) / Fold change /veh TNFAIP8L3 (11732012_x_at) / RFU MBOAT4 (11741988_at) / Fold change /veh MBOAT4 (11741988_at) / RFU 11764193_at / Fold change /veh 11764193_at / RFU TMEM53 (11763286_at) / Fold change /veh TMEM53 (11763286_at) / RFU MAGEB2 (11727129_at) / Fold change /veh MAGEB2 (11727129_at) / RFU TMEM200A (11744735_a_at) / Fold change /veh TMEM200A (11744735_a_at) / RFU CCDC152 (11751479_a_at) / Fold change /veh CCDC152 (11751479_a_at) / RFU FAM211A (11726209_a_at) / Fold change /veh FAM211A (11726209_a_at) / RFU RGS16 (11746705_a_at) / Fold change /veh RGS16 (11746705_a_at) / RFU VCAN (11755009_s_at) / Fold change /veh VCAN (11755009_s_at) / RFU RHOB (11743442_s_at) / Fold change /veh RHOB (11743442_s_at) / RFU RGS16 (11720943_a_at) / Fold change /veh RGS16 (11720943_a_at) / RFU RGS16 (11720944_at) / Fold change /veh RGS16 (11720944_at) / RFU, VPS4B / Fold change vs veh, VPS4B / RFU, CREB1 / Fold change vs veh, CREB1 / RFU, DNAJC13 / Fold change vs veh, DNAJC13 / RFU, GNAQ / Fold change vs veh, GNAQ / RFU, CDK5R1 / Fold change vs veh, CDK5R1 / RFU, ZRANB3 / Fold change vs veh, ZRANB3 / RFU, CUL4A / Fold change vs veh, CUL4A / RFU, CCNY / Fold change vs veh, CCNY / RFU, UFL1 / Fold change vs veh, UFL1 / RFU, COG3 / Fold change vs veh, COG3 / RFU, DIAPH2 / Fold change vs veh, DIAPH2 / RFU, SKA2 / Fold change vs veh, SKA2 / RFU, AFF3 / Fold change vs veh, AFF3 / RFU, LMF1 / Fold change vs veh, LMF1 / RFU, IPO11 / Fold change vs veh, IPO11 / RFU, DFFB / Fold change vs veh, DFFB / RFU, FOXP1 / Fold change vs veh, FOXP1 / RFU, CARD8 / Fold change vs veh, CARD8 / RFU, STRN3 / Fold change vs veh, STRN3 / RFU, ADK / Fold change vs veh, ADK / RFU, RASSF2 / Fold change vs veh, RASSF2 / RFU, WIPF1 / Fold change vs veh, WIPF1 / RFU, LARP1B / Fold change vs veh, LARP1B / RFU, RASA1 / Fold change vs veh, RASA1 / RFU, RB1 / Fold change vs veh, RB1 / RFU, PPFIA1 / Fold change vs veh, PPFIA1 / RFU, MAT2A / Fold change vs veh, MAT2A / RFU, CCT5 / Fold change vs veh, CCT5 / RFU, WDR92 / Fold change vs veh, WDR92 / RFU, CUX1 / Fold change vs veh, CUX1 / RFU, TTC7A / Fold change vs veh, TTC7A / RFU, TMEM135 / Fold change vs veh, TMEM135 / RFU, DEPTOR / Fold change vs veh, DEPTOR / RFU, CPM / Fold change vs veh, CPM / RFU, DNAJB6 / Fold change vs veh, DNAJB6 / RFU, CACNA2D3 / Fold change vs veh, CACNA2D3 / RFU, DTX4 / Fold change vs veh, DTX4 / RFU, TFCP2 / Fold change vs veh, TFCP2 / RFU, GMCL1 /// GMCL1P1 / Fold change vs veh, GMCL1 /// GMCL1P1 / RFU, AEBP2 / Fold change vs veh, AEBP2 / RFU, SNHG1 /// SNORD22 /// SNORD25 /// SNORD26 /// SNORD27 /// SNORD28 /// SNORD29 /// SNORD31 / Fold change vs veh, SNHG1 /// SNORD22 /// SNORD25 /// SNORD26 /// SNORD27 /// SNORD28 /// SNORD29 /// SNORD31 / Fold change (Aza/veh), C12orf56 (ProbeSet 11735607_a_at) / Fold change (ACY-1035/veh), C12orf56 (ProbeSet 11735607_a_at) / Fold change (Aza/veh), FGFR1OP (ProbeSet 11751329_s_at) / Fold change (ACY-1035/veh), FGFR1OP (ProbeSet 11751329_s_at) / Fold change (Aza/veh), VPS36 (ProbeSet 11739960_a_at) / Fold change (ACY-1035/veh), VPS36 (ProbeSet 11739960_a_at) / RFU SYPL1 (11715823_x_at) / Fold change /veh SYPL1 (11715823_x_at) / RFU IGFBP7 (11715501_s_at) / Fold change /veh IGFBP7 (11715501_s_at) / RFU REEP3 (11722064_at) / Fold change /veh REEP3 (11722064_at) / RFU IGLL1 (11728026_x_at) / Fold change /veh IGLL1 (11728026_x_at): dose or concentration left out as unconfirmed
Conditions: MV-4-11 cells, 48 hours

Nc1ccc(-c2cccs2)cc1NC(=O)c1ccc2c(c1)cc(C1CC1)n2CCN1CCOCC1 [ACY-1035]
RFU PIWIL2 (11732686_x_at): 9.71 RFU
